Assay results from patent US10577363B2, “Substituted piperidine compounds” (EPIZYME, INC., priority 2014, dated 2020).

molecular target: SMYD3 (Homo sapiens (Human), UniProt Q9H7B4); assay: SMYD3 biochemical assay (SPA, 3H-SAM methylation of MEKK2 protein substrate); settings: read-out: SMYD3 Biochem IC50 (μM)*
Outline: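 Methylation of N-terminally GST-tagged MEKK2 by untagged full-length human SMYD3, using 3H-SAM, in pH 8.0 Tris buffer with TCEP, BSG and Tween 20; enzyme and compound sat 30 min at room temperature before substrate addition. Stopped with 100 uM (final) cold SAM; incorporation read by scintillation proximity as dpm/cpm.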

| SMILES | IC50 |
| --- | --- |
| C[C@@H]1C[C@@H](NC(=O)c2cc(C3CC3)on2)CCN1S(=O)(=O)CCc1ccccc1 [compound 344, 5-cyclopropyl-N-((2R,4S)-2-methyl-1-(phenethylsulfonyl)piperidin-4-yl)isoxazole-3-carboxamide] | > 10 µM |
| C[C@@H]1C[C@@H](NC(=O)c2cc(C3CC3)on2)CCN1S(=O)(=O)CCC(F)(F)F [compound 345, 5-cyclopropyl-N-((2R,4S)-2-methyl-1-((3,3,3-trifluoropropyl)sulfonyl)piperidin-4-yl)isoxazole-3-carboxamide] | > 10 µM |
| C[C@H]1C[C@H](NC(=O)c2cc(C3CC3)on2)CCN1S(=O)(=O)N(C)C [compound 346, 5-cyclopropyl-N-((2S,4R)-1-(N,N-dimethylsulfamoyl)-2-methylpiperidin-4-yl)isoxazole-3-carboxamide] | > 10 µM |
| CCCCS(=O)(=O)N1CC[C@@H](NC(=O)c2cc(C3CC3)on2)C[C@@H]1C [compound 347, N-((2S,4R)-1-(butylsulfonyl)-2-methylpiperidin-4-yl)-5-cyclopropylisoxazole-3-carboxamide] | 8.02 µM |
| C[C@@H]1C[C@@H](NC(=O)c2cc(C3CC3)on2)CCN1S(=O)(=O)c1ccccc1 [compound 353, 5-cyclopropyl-N-((2R,4S)-2-methyl-1-(phenylsulfonyl)piperidin-4-yl)isoxazole-3-carboxamide] | 3.98 µM |
| C[C@@H]1C[C@@H](NC(=O)c2cc(C3CC3)on2)CCN1S(=O)(=O)c1cccc(C#N)c1 [compound 355, N-((2R,4S)-1-((3-cyanophenyl)sulfonyl)-2-methylpiperidin-4-yl)-5-cyclopropylisoxazole-3-carboxamide] | 0.278 µM |
| NCCCC(=O)N1CCC(NC(=O)c2cc(C3CC3)on2)C(C(F)(F)F)C1 (stereo not drawn) [compound 356, N-(1-(4-aminobutanoyl)-3-(trifluoromethyl)piperidin-4-yl)-5-cyclopropylisoxazole-3-carboxamide] | 1.21 µM |
| C[C@@H]1CC(NC(=O)c2cc(C3CC3)on2)CCN1C(=O)[C@@H](CN)Cc1ccc(O)cc1 (stereo partly drawn) [compound 357, N-((2R)-1-((R)-3-amino-2-(4-hydroxybenzyl)propanoyl)-2-methylpiperidin-4-yl)-5-cyclopropylisoxazole-3-carboxamide] | 1.17 µM |
| C[C@H](C(=O)N1CC[C@@H](NC(=O)c2cc(C3CC3)on2)C[C@@H]1C)C1CCNCC1 [compound 358, 5-cyclopropyl-N-((2S,4R)-2-methyl-1-((S)-2-(piperidin-4-yl)propanoyl)piperidin-4-yl)isoxazole-3-carboxamide] | 3.4 µM |
| C[C@@H](C(=O)N1CC[C@@H](NC(=O)c2cc(C3CC3)on2)C[C@@H]1C)C1CCNCC1 [compound 359, 5-cyclopropyl-N-((2S,4R)-2-methyl-1-((R)-2-(piperidin-4-yl)propanoyl)piperidin-4-yl)isoxazole-3-carboxamide] | 1.46 µM |
| O=C(N[C@@H]1CCN(C(=O)CC2CCNCC2)C[C@@H]1CO)c1cc(C2CC2)on1 [compound 362, 5-cyclopropyl-N-((3S,4R)-3-(hydroxymethyl)-1-(2-(piperidin-4-yl)acetyl)piperidin-4-yl)isoxazole-3-carboxamide] | 2.95 µM |
| N[C@H]1CC[C@H](C(=O)N2CC[C@@H](NC(=O)c3cc(C4CC4)on3)C[C@@H]2CO)CC1 [compound 363, N-((2R,4R)-1-((1r,4R)-4-aminocyclohexane-1-carbonyl)-2-(hydroxymethyl)piperidin-4-yl)-5-cyclopropylisoxazole-3-carboxamide] | 1.99 µM |
| N[C@H]1CC[C@H](C(=O)N2CC[C@H](NC(=O)c3cc(C4CC4)on3)C[C@H]2Cc2ccccc2)CC1 [compound 364, N-((2R,4S)-1-((1r,4R)-4-aminocyclohexane-1-carbonyl)-2-benzylpiperidin-4-yl)-5-cyclopropylisoxazole-3-carboxamide] | 4.57 µM |
| C[C@H]1C[C@H](NC(=O)c2cc(C3CC3)on2)CCN1C(=O)c1cccc(C(C)(C)N)c1 [compound 366, N-((2S,4R)-1-(3-(2-aminopropan-2-yl)benzoyl)-2-methylpiperidin-4-yl)-5-cyclopropylisoxazole-3-carboxamide] | 2.75 µM |
| C[C@H]1C[C@H](NC(=O)c2cc(C3CC3)on2)CCN1C(=O)c1ccc(C(C)(C)N)cc1 [compound 369, N-((2S,4R)-1-(4-(2-aminopropan-2-yl)benzoyl)-2-methylpiperidin-4-yl)-5-cyclopropylisoxazole-3-carboxamide] | 5.87 µM |
| C[C@@H]1C[C@@H](NC(=O)c2cc(C3CC3)on2)CCN1C(=O)c1ccc(C(C)(C)N)cc1 [compound 371, N-((2R,4S)-1-(4-(2-aminopropan-2-yl)benzoyl)-2-methylpiperidin-4-yl)-5-cyclopropylisoxazole-3-carboxamide] | 4.95 µM |
| C[C@H]1C[C@H](NC(=O)c2cc(C3CC3)on2)CCN1C(=O)C1CCCC(CN)C1 (stereo partly drawn) [compound 372, N-((2S,4R)-1-(3-(aminomethyl)cyclohexane-1-carbonyl)-2-methylpiperidin-4-yl)-5-cyclopropylisoxazole-3-carboxamide] | 5.89 µM |
| C[C@@H]1C[C@@H](NC(=O)c2cc(C3CC3)on2)CCN1S(=O)(=O)Cc1cccnc1 [compound 374, 5-cyclopropyl-N-((2R,4S)-2-methyl-1-((pyridin-3-ylmethyl)sulfonyl)piperidin-4-yl)isoxazole-3-carboxamide] | > 10 µM |
| O=C(N[C@H]1CCN(C(=O)CC2CCNCC2)[C@H](Cc2ccccc2)C1)c1cc(C2CC2)on1 [compound 375, N-((2R,4S)-2-benzyl-1-(2-(piperidin-4-yl)acetyl)piperidin-4-yl)-5-cyclopropylisoxazole-3-carboxamide] | 1.83 µM |
| O=C(N[C@@H]1CCN(C(=O)CC2CCNCC2)[C@@H](Cc2ccccc2)C1)c1cc(C2CC2)on1 [compound 376, N-((2S,4R)-2-benzyl-1-(2-(piperidin-4-yl)acetyl)piperidin-4-yl)-5-cyclopropylisoxazole-3-carboxamide] | 1.32 µM |
| C[C@H]1C[C@H](NC(=O)c2cc(C3CC3)on2)CCN1S(=O)(=O)c1ccccc1 [compound 379, 5-cyclopropyl-N-((2S,4R)-2-methyl-1-(phenylsulfonyl)piperidin-4-yl)isoxazole-3-carboxamide] | 3.35 µM |
| C[C@H]1C[C@H](NC(=O)c2cc(C3CC3)on2)CCN1S(=O)(=O)c1cccc(C#N)c1 [compound 380, N-((2S,4R)-1-((3-cyanophenyl)sulfonyl)-2-methylpiperidin-4-yl)-5-cyclopropylisoxazole-3-carboxamide] | 0.323 µM |
| N[C@H]1CC[C@H](C(=O)N2CC[C@@H](NC(=O)c3cc(C4CC4)on3)[C@H](CO)C2)CC1 [compound 382, N-((3R,4R)-1-((1r,4R)-4-aminocyclohexane-1-carbonyl)-3-(hydroxymethyl)piperidin-4-yl)-5-cyclopropylisoxazole-3-carboxamide] | 2.54 µM |
| O=C(N[C@@H]1CCN(C(=O)CC2CCNCC2)C[C@H]1CO)c1cc(C2CC2)on1 [compound 383, 5-cyclopropyl-N-((3R,4R)-3-(hydroxymethyl)-1-(2-(piperidin-4-yl)acetyl)piperidin-4-yl)isoxazole-3-carboxamide] | 3.02 µM |
